{"source": "patent US20260265703A1", "about": "“DEGRON FUSION PROTEINS AND METHODS OF PRODUCTION AND USE THEREOF” (BlueRock Therapeutics LP, priority 2023, published 2026)", "key": {"[1]": {"system": "iPSCs edited with a construct comprising a degron fused to GAPDH as well as GFP (GFP-positive)", "assay": "Depletion of GFP-positive gene-edited iPSCs in a mixture with unedited cells after POM", "format": "cell-based", "conditions": "3 μM POM for 6d; heterogenous mixture; FIG. 7G construct", "experimental": "(§1) Functionality of the kill switch was tested in iPSCs using the targeting construct depicted in FIG. 7G, which comprises a linker, a degron sequence, an IRES, and a GFP transgene sequence flanked by GAPDH homology arms. On the day of Nucleofection, iPSCs were harvested and resuspended in Lonza P3 primary cell nucleofection buffer. Ribonucleoproteins (RNPs) were complexed with sgRNAs using 1:2 ratio of protein:sgRNA (IDT). Nucleofection of complexed RNP together with a targeting construct into resuspended iPSCs was accomplished using LONZA 4D Nucleofector. The Nucleofected cells were then plated and assessed for targeting events.\n(§2) A heterogenous mixture of unedited cells (GFP-negative) and cells edited with a construct depicted in FIG. 7G, comprising a degron fused to GAPDH as well as GFP (GFP-positive) were treated with 3 μM pomalidomide (POM) for 6d or fed with complete medium without POM (untreated)."}, "[2]": {"system": "DA neurons derived from unedited parental iPSCs", "assay": "Annexin V Incucyte cell death of DA neurons derived from unedited parental iPSCs", "format": "cell-based", "experimental": "(§3) In order to determine the applicability of the degron-comprising targeting constructs to differentiated cells, unedited parental iPSCs and gene-edited iPSC clones B and C were differentiated into dopaminergic (DA) neurons as depicted in FIG. 13. The differentiation protocol was adapted from Kriks et al., 2011, Nature 480 (7378): 547-551 and U.S. Pat. No. 10,711,243, which are hereby incorporated by reference in their entireties. Cell death was assessed post-thaw after cells were plated down in the presence and absence of various concentrations of POM. Annexin V dye was used to quantify cell death in an Incucyte imager over a period of 5 days.\n(§4) Cells were differentiated from iPSCs into DA neurons using the same protocol as depicted in FIG. 13. DA neurons were plated and stained with Annexin V dye and cell death was measured using an Incucyte Imager over a period of 144 hours."}, "[3]": {"system": "myeloid progenitor (MP) cells differentiated from biallelically gene-edited iPSC clones A, B, and C", "assay": "AO/PI Incucyte cell death of myeloid progenitor cells differentiated from gene-edited iPSCs", "format": "cell-based", "conditions": "1 μM POM, 108 hours", "excerpt": "(§5) To expand the applicability of the degron-comprising constructs to additional differentiated cell types, unedited parental iPSCs and biallelically gene-edited iPSC clones A, B, and C comprising targeting construct as depicted in FIG. 7G were differentiated into myeloid progenitor (MP) cells as depicted in FIG. 17. The differentiation protocol was adapted from Douvaras et al., 2017 Jun. 6; 8 (6): 1516-1524 and PCT publication nos. WO 2023/150089 A1 and WO 2017/152081 A1, which are hereby incorporated by reference in their entireties. Cell death was assessed post-thaw after MP cells were plated down in the presence and absence of POM. Acridine Orange/Propidium Iodine (AO/PI) dye was used to quantify cell death in an Incucyte Imager over a period of 108 hours."}, "[4]": {"system": "iPSC clone bi-allelically modified with a degron fused to GAPDH and IRES-GFP", "assay": "Incucyte live cells/well of a bi-allelically modified iPSC clone under POM", "format": "cell-based", "conditions": "1 μM POM", "excerpt": "The percentage of live cells/well was quantified at several timepoints using the Incucyte software and normalized for the number of live cells/well at the first image timepoint."}, "[5]": {"system": "pool of iPSCs transfected with degron or superdegron GAPDH IRES-GFP targeting constructs", "assay": "Linker length: flow cytometry of GFP signal depletion in transfected iPSC pools", "format": "cell-based", "conditions": "3 μM POM for 4 days", "excerpt": "(§6) Two sets of targeting constructs were generated as described in Section 8.1. The first set of targeting constructs were designed to comprise a linker, a degron or superdegron sequence, an IRES sequence, and a GFP transgene sequence flanked by GAPDH homology arms as depicted in FIGS. 7G-7J, wherein the linker lengths were 3 aa (linker 1, GGS), 15 aa (linker 2, SEQ ID NO:23), 27 aa (linker 3, SEQ ID NO:103) and 10 aa (linker 4, SEQ ID NO:15). The second set of targeting constructs were designed to comprise a linker and a degron or superdegron sequence flanked by GAPDH homology arms as depicted in FIGS. 7A-7D. For both sets, the homology arms were designed to enable integration of the construct in the endogenous GAPDH locus, immediately 5′ of the GAPDH endogenous STOP codon. iPSCs were transfected with each construct individually.\nA pool of iPSCs transfected with the first set of targeting constructs, potentially comprising both mono-allelically and bi-allelically gene edited iPSCs, were evaluated using flow cytometry, wherein the depletion of GFP signal was assessed following treatment with 3 μM POM for 4 days. Among gene-edited iPSCs, those that were transfected with the superdegron-comprising targeting construct had the lowest percentage of GFP-positive cells, whereas approximately ⅓ to ½ of […] cells transfected with one of the degron-comprising targeting constructs were GFP-positive."}, "GAPDH expression": {"system": "GAPDH expression", "assay": "qPCR of GAPDH expression in gene-edited iPSC clones", "format": "cell-based", "conditions": "3 μM POM for up to 3 days; three degron clones and one superdegron clone"}, "[6]": {"system": "iPSCs transfected with degron or superdegron GAPDH targeting constructs", "assay": "Linker length: amplicon depletion after POM relative to untreated cells", "format": "cell-based", "conditions": "3 μM POM; construct with 3 aa linker and degron", "excerpt": "as §6\nNext, the iPSCs transfected with the second set of targeting constructs were evaluated, wherein amplicon depletion was assessed following POM treatment relative to untreated cells. […] Taken together, targeting construct linker length and degron type might be key factors to trigger cell death in gene-edited cells."}, "[7]": {"system": "unedited parental cells (iPSCs)", "assay": "Growth of unedited parental iPSCs under POM", "format": "cell-based", "conditions": "0.5 μM POM for 5 days", "experimental": "The same gene-edited iPSC clones in Example 4 were treated with 0.5 μM POM for 5 days to determine if there were any differences between the survival rates."}, "[8]": {"system": "gene-edited iPSC clones (degron or superdegron linked to GAPDH)", "format": "cell-based"}, "[9]": {"biological_target": "degron-fused GAPDH protein (Homo sapiens, UniProt P04406+Q96SW2)", "sequence (P04406 other isoform, or with tags, fused parts or gaps)": "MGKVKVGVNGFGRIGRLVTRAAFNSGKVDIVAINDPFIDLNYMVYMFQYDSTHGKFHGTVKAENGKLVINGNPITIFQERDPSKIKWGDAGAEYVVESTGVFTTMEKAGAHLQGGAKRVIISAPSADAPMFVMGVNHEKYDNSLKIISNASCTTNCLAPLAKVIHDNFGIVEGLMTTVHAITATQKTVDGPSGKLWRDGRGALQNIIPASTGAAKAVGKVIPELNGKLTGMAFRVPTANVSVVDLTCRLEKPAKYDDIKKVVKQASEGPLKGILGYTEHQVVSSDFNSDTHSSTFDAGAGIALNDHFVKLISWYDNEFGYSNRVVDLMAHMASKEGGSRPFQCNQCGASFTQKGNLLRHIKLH", "sequence (Q96SW2 whole entry, the tested form may be a part)": "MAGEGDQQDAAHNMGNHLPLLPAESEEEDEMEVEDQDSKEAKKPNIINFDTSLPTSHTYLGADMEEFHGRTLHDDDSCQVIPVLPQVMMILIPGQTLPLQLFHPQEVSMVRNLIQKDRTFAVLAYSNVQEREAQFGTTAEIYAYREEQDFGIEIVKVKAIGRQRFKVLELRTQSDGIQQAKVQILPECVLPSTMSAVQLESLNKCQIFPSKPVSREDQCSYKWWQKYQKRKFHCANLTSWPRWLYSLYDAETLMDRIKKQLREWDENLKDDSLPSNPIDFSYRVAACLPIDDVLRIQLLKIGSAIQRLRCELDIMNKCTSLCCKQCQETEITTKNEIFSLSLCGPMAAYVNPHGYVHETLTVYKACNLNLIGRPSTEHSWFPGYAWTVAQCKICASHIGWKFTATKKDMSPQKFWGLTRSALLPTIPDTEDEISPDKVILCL", "sequence (Q16531 whole entry, further chain, the tested form may be a part)": "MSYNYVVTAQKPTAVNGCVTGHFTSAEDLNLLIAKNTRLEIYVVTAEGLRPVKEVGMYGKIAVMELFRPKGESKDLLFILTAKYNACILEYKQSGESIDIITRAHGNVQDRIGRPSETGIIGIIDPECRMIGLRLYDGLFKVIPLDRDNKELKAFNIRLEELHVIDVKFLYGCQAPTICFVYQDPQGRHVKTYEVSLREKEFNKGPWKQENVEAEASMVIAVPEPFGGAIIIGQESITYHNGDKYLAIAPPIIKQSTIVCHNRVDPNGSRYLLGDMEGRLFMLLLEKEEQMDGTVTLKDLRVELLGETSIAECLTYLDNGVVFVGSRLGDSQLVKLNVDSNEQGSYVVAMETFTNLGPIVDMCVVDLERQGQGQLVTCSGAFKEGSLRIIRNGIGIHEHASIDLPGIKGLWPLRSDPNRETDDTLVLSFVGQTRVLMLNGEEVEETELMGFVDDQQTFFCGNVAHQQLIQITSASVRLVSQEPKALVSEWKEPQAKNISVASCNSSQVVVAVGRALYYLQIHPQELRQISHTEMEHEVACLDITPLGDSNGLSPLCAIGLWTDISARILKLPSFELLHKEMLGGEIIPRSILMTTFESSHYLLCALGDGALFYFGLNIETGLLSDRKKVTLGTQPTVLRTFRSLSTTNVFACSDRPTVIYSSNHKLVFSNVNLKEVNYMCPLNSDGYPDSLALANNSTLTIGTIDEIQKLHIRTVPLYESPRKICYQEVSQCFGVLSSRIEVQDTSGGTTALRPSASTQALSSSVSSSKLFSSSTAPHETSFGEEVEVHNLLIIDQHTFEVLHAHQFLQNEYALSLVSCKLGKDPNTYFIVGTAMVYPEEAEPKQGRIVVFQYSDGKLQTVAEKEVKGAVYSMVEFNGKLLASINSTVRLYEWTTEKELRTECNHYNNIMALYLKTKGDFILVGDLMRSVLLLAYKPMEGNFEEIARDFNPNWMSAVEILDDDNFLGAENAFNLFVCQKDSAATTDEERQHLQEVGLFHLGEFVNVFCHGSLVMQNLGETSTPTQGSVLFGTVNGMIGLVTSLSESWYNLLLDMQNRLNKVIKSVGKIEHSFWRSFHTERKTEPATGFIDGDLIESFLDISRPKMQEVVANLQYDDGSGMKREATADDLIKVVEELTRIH", "conditions": "one day treatment with 3 μM POM; degron and superdegron iPSC clones", "experimental": "To determine whether gene-editing of iPSCs with a targeting construct, wherein the homology arms of which enable its integration in the endogenous GAPDH locus, affects the expression of GAPDH, three clones bi-allelically modified with a targeting construct comprising a 3 aa linker, GGS and a degron (as depicted in FIG. 7G) and one clone bi-allelically modified with superdegron-comprising targeting construct (as depicted in FIG. 7J) were treated with 3 μM POM for up to 3 days."}, "[10]": {"system": "dopaminergic (DA) neurons differentiated from gene-edited iPSC clones (degron linked to GAPDH)", "assay": "Annexin V Incucyte cell death of DA neurons differentiated from gene-edited iPSCs", "format": "cell-based", "experimental": "as §3, §4"}, "[11]": {"system": "unedited cells (GFP-negative) iPSCs", "assay": "Effect of POM on unedited cells in the mixture with gene-edited iPSCs", "format": "cell-based", "conditions": "3 μM POM for 6d; heterogenous mixture", "experimental": "as §1, §2"}, "[12]": {"system": "myeloid progenitor (MP) cells differentiated from unedited parental iPSCs", "assay": "AO/PI Incucyte cell death of myeloid progenitor cells from unedited parental iPSCs", "format": "cell-based", "conditions": "1 μM POM; 108 hours", "excerpt": "as §5"}}, "data": [{"compound": "Nc1cccc2c1C(=O)N(C1CCC(=O)NC1=O)C2=O", "note": "(stereo not shown) [POM, pomalidomide]", "values": [{"measurement": "effect on the population of edited GFP-positive cells", "setting": "[1]", "result": "depleted the population of edited GFP-positive cells"}, {"measurement": "cell death at any POM concentration tested", "setting": "[2]; 0.01 μM to 100 μM POM, 144 hours", "result": "No differences in cell death"}, {"measurement": "neuronal death with vs without POM", "setting": "[2]; various POM concentrations, 5 days", "result": "No differences in neuronal death"}, {"measurement": "cell death of gene-edited MP clones", "setting": "[3]", "result": "died in response to POM"}, {"measurement": "elimination of gene edited cells", "setting": "[4]; 92 hours after addition", "result": "completely eliminated"}, {"measurement": "time after addition of POM at which cell death rate surpassed proliferation rate", "setting": "[4]; bi-allelic FIG. 7G clone, Incucyte", "result": "around 24 hours"}, {"measurement": "depletion of GFP-positive cells", "setting": "[5]; degron construct with the shortest linker (3 aa, GGS)", "result": "depleted GFP-positive cells"}, {"measurement": "depletion of GFP-positive cells", "setting": "[5]; degron constructs with 15 aa and 27 aa linkers (no depletion implied)", "result": "only if they were transfected with the degron-comprising targeting construct with the shortest linker or the superdegron-comprising targeting construct"}, {"measurement": "depletion of GFP-positive cells", "setting": "[5]; superdegron construct (10 aa linker)", "result": "depleted GFP-positive cells"}, {"measurement": "GAPDH expression by qPCR, untreated vs POM-treated gene-edited cells", "setting": "GAPDH expression", "result": "No large differences in GAPDH expression"}, {"measurement": "amplicon depletion relative to untreated cells", "setting": "[6]", "result": "associated with amplicon depletion"}, {"measurement": "growth of unedited parental cells", "setting": "[7]", "result": "did not affect the growth of unedited parental cells"}, {"measurement": "killing of gene-edited iPSCs", "setting": "[8]; 0.5 μM POM for 5 days, degron and superdegron clones of Example 4", "result": "complete killing of all gene-edited iPSCs"}, {"measurement": "POM concentration sufficient to achieve complete killing", "setting": "[8]; degron construct, monitored 5 days, range 0.03125 μM to 10 μM", "result": 0.5, "unit": "µM"}, {"measurement": "POM concentration able to trigger apoptosis", "setting": "[8]; degron construct, monitored 5 days, range 0.03125 μM to 10 μM, data not shown", "result": 0.25, "unit": "µM"}, {"measurement": "lowest POM concentration evaluated, associated with apoptosis of all cells", "setting": "[8]; superdegron construct, monitored 5 days", "result": 0.03125, "unit": "µM"}, {"measurement": "GAPDH protein by western blot", "setting": "[9]", "result": "completely depleted"}, {"measurement": "POM concentration giving nearly complete cell death", "setting": "[10]; Clone A or Clone C, by 144 hours, range 0.01 μM to 100 μM", "result": 0.1, "unit": "µM"}, {"measurement": "POM concentration giving complete killing (lowest concentration evaluated)", "setting": "[10]; DA neurons derived from clone B, 5-day treatment", "result": 10, "unit": "nM"}, {"measurement": "death of neurons at all POM concentrations evaluated", "setting": "[10]; clone B and clone C, by day 5, 0.13 μM-1 μM POM", "result": "complete death of all neurons"}, {"measurement": "effect on unedited cells", "setting": "[11]", "result": "did not affect unedited cells"}, {"measurement": "cell death of unedited parental MP line", "setting": "[12]", "result": "no increase in cell death"}]}]}
